Results: paper PMC5218480 (PLoS ONE, 2017)

Test system: MV-4-11 cells
Assay: Gene expression microarray analysis (Affymetrix PrimeView) and GSEA
Assay type: cell-based, human
Design: RFU PODN (11730768_x_at) / Fold change /veh PODN (11730768_x_at) / RFU LINC00158 (11744669_a_at) / Fold change /veh LINC00158 (11744669_a_at) / RFU DUSP10 (11751237_a_at) / Fold change /veh DUSP10 (11751237_a_at) / RFU ID3 (11757404_x_at) / Fold change /veh ID3 (11757404_x_at) / RFU PLEKHG5 (11737974_s_at) / Fold change /veh PLEKHG5 (11737974_s_at) / RFU LRRC4B (11730491_at) / Fold change /veh LRRC4B (11730491_at) / RFU GIMAP4 (11747438_a_at) / Fold change /veh GIMAP4 (11747438_a_at) / RFU KRT8 (11758183_x_at) / Fold change /veh KRT8 (11758183_x_at) / RFU CNN1 (11734310_a_at) / Fold change /veh CNN1 (11734310_a_at) / RFU VPS37D (11726825_at) / Fold change /veh VPS37D (11726825_at) / RFU C10orf10 (11716522_x_at) / Fold change /veh C10orf10 (11716522_x_at) / RFU KIR2DL2 /// KIR2DL4 /// KIR2DL5A /// KIR2DL5B /// KIR2DS1 /// KIR2DS2 /// KIR2DS3 /// KIR2DS4 /// KIR3DL3 /// KIR3DL3 /// KIR3DS1 (11738374_at) / Fold change /veh KIR2DL2 /// KIR2DL4 /// KIR2DL5A /// KIR2DL5B /// KIR2DS1 /// KIR2DS2 /// KIR2DS3 /// KIR2DS4 /// KIR3DL3 /// KIR3DL3 /// KIR3DS1 (11738374_at) / RFU C1QL1 (11718748_at) / Fold change /veh C1QL1 (11718748_at) / RFU TMPRSS4 (11747572_a_at) / Fold change /veh TMPRSS4 (11747572_a_at) / RFU HAMP (11756126_x_at) / Fold change /veh HAMP (11756126_x_at) / RFU RNFT2 (11725882_a_at) / Fold change /veh RNFT2 (11725882_a_at) / RFU NR4A2 (11747474_a_at) / Fold change /veh NR4A2 (11747474_a_at) / RFU ABCC12 (11746883_a_at) / Fold change /veh ABCC12 (11746883_a_at) / RFU TMEM136 (11760407_x_at) / Fold change /veh TMEM136 (11760407_x_at) / RFU CLDN22 /// WWC2 (11732394_at) / Fold change /veh CLDN22 /// WWC2 (11732394_at) / RFU HLA-DPB1 (11760878_x_at) / Fold change /veh HLA-DPB1 (11760878_x_at) / RFU SPINT1 (11716480_a_at) / Fold change /veh SPINT1 (11716480_a_at) / RFU GAP43 (11754022_s_at) / Fold change /veh GAP43 (11754022_s_at) / RFU A4GNT (11735810_at) / Fold change /veh A4GNT (11735810_at) / RFU PRB3 (11715151_x_at) / Fold change /veh PRB3 (11715151_x_at) / RFU TUBB4B (11761932_at) / Fold change /veh TUBB4B (11761932_at) / RFU CAPN14 (11732068_a_at) / Fold change /veh CAPN14 (11732068_a_at) / RFU TMCC2 (11721928_a_at) / Fold change /veh TMCC2 (11721928_a_at) / RFU IRGQ (11745062_a_at) / Fold change /veh IRGQ (11745062_a_at) / RFU FAM174B (11720279_a_at) / Fold change /veh FAM174B (11720279_a_at) / RFU TMPRSS4 (11748680_a_at) / Fold change /veh TMPRSS4 (11748680_a_at) / RFU FAM212B (11763350_a_at) / Fold change /veh FAM212B (11763350_a_at) / RFU PLEKHG5 (11743358_a_at) / Fold change /veh PLEKHG5 (11743358_a_at) / RFU ZSCAN30 (11745921_a_at) / Fold change /veh ZSCAN30 (11745921_a_at) / RFU CMKLR1 (11741424_a_at) / Fold change /veh CMKLR1 (11741424_a_at) / RFU LOC101060620 /// MAPK8IP1 (11723275_at) / Fold change /veh LOC101060620 /// MAPK8IP1 (11723275_at) / RFU SPTSSB (11747773_x_at) / Fold change /veh SPTSSB (11747773_x_at) / RFU PRSS12 (11739890_at) / Fold change /veh PRSS12 (11739890_at) / RFU BIN1 (11741810_x_at) / Fold change /veh BIN1 (11741810_x_at) / RFU WNT11 (11732464_a_at) / Fold change /veh WNT11 (11732464_a_at) / RFU C10orf10 (11716521_a_at) / Fold change /veh C10orf10 (11716521_a_at) / RFU C5orf56 (11738089_at) / Fold change /veh C5orf56 (11738089_at) / RFU CYB561 (11721691_x_at) / Fold change /veh CYB561 (11721691_x_at) / RFU ANKRD19P (11752326_a_at) / Fold change /veh ANKRD19P (11752326_a_at) / RFU OR2T12 /// OR2T33 /// OR2T8 (11738714_s_at) / Fold change /veh OR2T12 /// OR2T33 /// OR2T8 (11738714_s_at) / RFU VCAN (11748164_a_at) / Fold change /veh VCAN (11748164_a_at) / RFU JSRP1 (11732532_at) / Fold change /veh JSRP1 (11732532_at) / RFU KRTAP10-11 (11738290_x_at) / Fold change /veh KRTAP10-11 (11738290_x_at) / RFU MYO3A (11730013_a_at) / Fold change /veh MYO3A (11730013_a_at) / RFU EBF3 (11725865_a_at) / Fold change /veh EBF3 (11725865_a_at) / RFU CAMK2N1 (11719241_x_at) / Fold change /veh CAMK2N1 (11719241_x_at) / RFU C5orf56 (11738088_a_at) / Fold change /veh C5orf56 (11738088_a_at) / RFU OLFML3 (11715873_a_at) / Fold change /veh OLFML3 (11715873_a_at) / RFU LOC100653217 /// NTM (11731650_a_at) / Fold change /veh LOC100653217 /// NTM (11731650_a_at) / RFU MAPK11 (11762145_a_at) / Fold change /veh MAPK11 (11762145_a_at) / RFU FIZ1 (11724087_x_at) / Fold change /veh FIZ1 (11724087_x_at) / RFU OASL (11726364_x_at) / Fold change /veh OASL (11726364_x_at) / RFU SOX15 (11748057_x_at) / Fold change /veh SOX15 (11748057_x_at) / RFU CD79A (11719716_a_at) / Fold change /veh CD79A (11719716_a_at) / RFU HIST1H1D (11736915_at) / Fold change /veh HIST1H1D (11736915_at) / RFU CASKIN2 (11723855_a_at) / Fold change /veh CASKIN2 (11723855_a_at) / RFU LOC730098 (11760151_x_at) / Fold change /veh LOC730098 (11760151_x_at) / RFU OR4N2 (11742367_at) / Fold change /veh OR4N2 (11742367_at) / RFU PRRT2 (11749266_a_at) / Fold change /veh PRRT2 (11749266_a_at) / RFU SNX32 (11753110_a_at) / Fold change /veh SNX32 (11753110_a_at) / RFU CDHR5 (11726645_a_at) / Fold change /veh CDHR5 (11726645_a_at) / RFU RCAN1 (11760418_a_at) / Fold change /veh RCAN1 (11760418_a_at) / RFU FAM167A (11723789_a_at) / Fold change /veh FAM167A (11723789_a_at) / RFU FAM26E (11764081_at) / Fold change /veh FAM26E (11764081_at) / RFU ISYNA1 (11749810_s_at) / Fold change /veh ISYNA1 (11749810_s_at) / RFU ACY1 (11761880_at) / Fold change /veh ACY1 (11761880_at) / RFU 11764098_at / Fold change /veh 11764098_at / RFU SAMD14 (11745864_x_at) / Fold change /veh SAMD14 (11745864_x_at) / RFU NPB (11741838_a_at) / Fold change /veh NPB (11741838_a_at) / RFU TMPRSS6 (11731388_a_at) / Fold change /veh TMPRSS6 (11731388_a_at) / RFU KRTAP10-2 (11738614_at) / Fold change /veh KRTAP10-2 (11738614_at) / RFU ARHGAP8 /// PRR5-ARHGAP8 (11727945_x_at) / Fold change /veh ARHGAP8 /// PRR5-ARHGAP8 (11727945_x_at) / RFU KRTAP5-7 /// NADSYN1 (11734609_at) / Fold change /veh KRTAP5-7 /// NADSYN1 (11734609_at) / RFU RASL12 (11751679_a_at) / Fold change /veh RASL12 (11751679_a_at) / RFU CDKN2B (11736163_a_at) / Fold change /veh CDKN2B (11736163_a_at) / RFU PRF1 (11729649_at) / Fold change /veh PRF1 (11729649_at) / RFU, ZNF638 /// ZNF638-IT1 / Fold change vs veh, ZNF638 /// ZNF638-IT1 / RFU, PANK3 / Fold change vs veh, PANK3 / RFU, SH3YL1 / Fold change vs veh, SH3YL1 / RFU, ZEB2 / Fold change vs veh, ZEB2 / RFU, NRIP1 / Fold change vs veh, NRIP1 / RFU, PTTG1IP / Fold change vs veh, PTTG1IP / RFU, CAPN2 / Fold change vs veh, CAPN2 / RFU, MED14 / Fold change vs veh, MED14 / RFU, SNORA58 / Fold change vs veh, SNORA58 / RFU, C1orf63 / Fold change vs veh, C1orf63 / RFU, LRRFIP1 / Fold change vs veh, LRRFIP1 / RFU, NDUFAF7 / Fold change vs veh, NDUFAF7 / RFU, SLC12A2 / Fold change vs veh, SLC12A2 / RFU, IBTK / Fold change vs veh, IBTK / RFU, ESF1 / Fold change vs veh, ESF1 / Fold change vs veh, TMEM50B / RFU, TAOK1 / Fold change vs veh, TAOK1 / RFU, ACBD3 / Fold change vs veh, ACBD3 / RFU, TMA16 / Fold change vs veh, TMA16 / RFU, RWDD3 / Fold change vs veh, RWDD3 / RFU, BCAT1 / Fold change vs veh, BCAT1 / RFU, EDEM3 / Fold change vs veh, EDEM3 / RFU, TMEM33 / Fold change vs veh, TMEM33 / RFU, WDR75 / Fold change vs veh, WDR75 / RFU, AHCTF1 / Fold change vs veh, AHCTF1 / RFU, TFRC / Fold change vs veh, TFRC / RFU, ZDHHC17 / Fold change vs veh, ZDHHC17 / RFU, NOM1 / Fold change vs veh, NOM1 / RFU, ARL8B / Fold change vs veh, ARL8B / RFU, ZBTB11 / Fold change vs veh, ZBTB11 / RFU, TAMM41 / Fold change vs veh, TAMM41 / RFU, KIAA1704 /// LOC100996395 / Fold change vs veh, KIAA1704 /// LOC100996395 / RFU, ING1 / Fold change vs veh, ING1 / RFU, TRMT61B / Fold change vs veh, TRMT61B / RFU, FUBP3 / Fold change vs veh, FUBP3 / RFU, TP53 / Fold change vs veh, TP53 / RFU, TNKS2 / Fold change vs veh, TNKS2 / RFU, ZFP14 / Fold change vs veh, ZFP14 / RFU, ACTR2 / Fold change vs veh, ACTR2 / RFU, PPP3R1 / Fold change vs veh, PPP3R1 / RFU, PIK3R1 / Fold change vs veh, PIK3R1 / RFU, HNRNPA1 / Fold change vs veh, HNRNPA1 / RFU, RNF170 / Fold change vs veh, RNF170 / RFU, ZNF28 / Fold change vs veh, ZNF28 / RFU, RNGTT / Fold change vs veh, RNGTT / RFU, OGT / Fold change vs veh, OGT / RFU, BRD1 / Fold change vs veh, BRD1 / RFU, MARS / Fold change vs veh, MARS / RFU, ZNF655 / Fold change vs veh, ZNF655 / RFU, FAHD1 / Fold change vs veh, FAHD1 / RFU, BDP1 / Fold change vs veh, BDP1 / RFU, LRRCC1 / Fold change vs veh, LRRCC1 / RFU, ARID1A / Fold change vs veh, ARID1A / RFU, ZNF146 / Fold change vs veh, ZNF146 / RFU, ZNF330 / Fold change vs veh, ZNF330 / RFU, GPN3 / Fold change vs veh, GPN3 / RFU, C9orf123 / Fold change vs veh, C9orf123 / RFU, N4BP2L2 / Fold change vs veh, N4BP2L2 / RFU, ARFIP1 / Fold change vs veh, ARFIP1 / RFU, FAM179B / Fold change vs veh, FAM179B / RFU, BCL10 / Fold change vs veh, BCL10 / RFU, UHRF1BP1L / Fold change vs veh, UHRF1BP1L / RFU, BET1 / Fold change vs veh, BET1 / RFU, CNOT2 / Fold change vs veh, CNOT2 / RFU, ZNF268 / Fold change vs veh, ZNF268 / Fold change vs veh, ZNF507 / RFU, DGCR2 / Fold change vs veh, DGCR2 / RFU, WDSUB1 / Fold change vs veh, WDSUB1 / Fold change vs veh, HSP90B1 /// MIR3652 / RFU, ADSS / Fold change vs veh, ADSS / RFU, GK / Fold change vs veh, GK / RFU, ZNF148 / Fold change vs veh, ZNF148 / RFU, TAF9 / Fold change vs veh, TAF9 / RFU, SLC1A5 / Fold change vs veh, SLC1A5 / RFU, SLMO2 / Fold change vs veh, SLMO2 / RFU, ABCC4 / Fold change vs veh, ABCC4 / RFU, LOC101060439 /// RAP1B / Fold change vs veh, LOC101060439 /// RAP1B / RFU, RFX7 / Fold change vs veh, RFX7 / RFU, GTPBP10 / Fold change vs veh, GTPBP10 / RFU, CNEP1R1 / Fold change vs veh, CNEP1R1 / RFU, BIVM-ERCC5 /// ERCC5 / Fold change vs veh, BIVM-ERCC5 /// ERCC5 / RFU, ILF3 / Fold change vs veh, ILF3 / RFU 11762660_at / Fold change /veh 11762660_at / RFU VCAN (11757783_s_at) / Fold change /veh VCAN (11757783_s_at) / RFU DDX43 (11728927_at) / Fold change /veh DDX43 (11728927_at) / RFU KRT8 (11758188_x_at) / Fold change /veh KRT8 (11758188_x_at) / RFU NKD1 (11759106_at) / Fold change /veh NKD1 (11759106_at) / RFU SRD5A1 (11742802_a_at) / Fold change /veh SRD5A1 (11742802_a_at) / RFU TPSAB1 /// TPSB2 (11721975_s_at) / Fold change /veh TPSAB1 /// TPSB2 (11721975_s_at) / RFU GSTM3 (11746129_a_at) / Fold change /veh GSTM3 (11746129_a_at) / RFU IL23R (11737362_x_at) / Fold change /veh IL23R (11737362_x_at) / RFU TMEM51 (11727254_a_at) / Fold change /veh TMEM51 (11727254_a_at) / RFU PIWIL2 (11732686_x_at) / Fold change /veh PIWIL2 (11732686_x_at) / RFU ORM1 (11744905_x_at) / Fold change /veh ORM1 (11744905_x_at) / RFU CCDC152 (11743942_at) / Fold change /veh CCDC152 (11743942_at) / RFU ECM1 (11717891_a_at) / Fold change /veh ECM1 (11717891_a_at) / RFU IL23R (11748794_a_at) / Fold change /veh IL23R (11748794_a_at) / RFU TNFAIP8L3 (11732012_x_at) / Fold change /veh TNFAIP8L3 (11732012_x_at) / RFU MBOAT4 (11741988_at) / Fold change /veh MBOAT4 (11741988_at) / RFU 11764193_at / Fold change /veh 11764193_at / RFU TMEM53 (11763286_at) / Fold change /veh TMEM53 (11763286_at) / RFU MAGEB2 (11727129_at) / Fold change /veh MAGEB2 (11727129_at) / RFU TMEM200A (11744735_a_at) / Fold change /veh TMEM200A (11744735_a_at) / RFU CCDC152 (11751479_a_at) / Fold change /veh CCDC152 (11751479_a_at) / RFU FAM211A (11726209_a_at) / Fold change /veh FAM211A (11726209_a_at) / RFU RGS16 (11746705_a_at) / Fold change /veh RGS16 (11746705_a_at) / RFU VCAN (11755009_s_at) / Fold change /veh VCAN (11755009_s_at) / RFU RHOB (11743442_s_at) / Fold change /veh RHOB (11743442_s_at) / RFU RGS16 (11720943_a_at) / Fold change /veh RGS16 (11720943_a_at) / RFU RGS16 (11720944_at) / Fold change /veh RGS16 (11720944_at) / RFU, VPS4B / Fold change vs veh, VPS4B / RFU, CREB1 / Fold change vs veh, CREB1 / RFU, DNAJC13 / Fold change vs veh, DNAJC13 / RFU, GNAQ / Fold change vs veh, GNAQ / RFU, CDK5R1 / Fold change vs veh, CDK5R1 / RFU, ZRANB3 / Fold change vs veh, ZRANB3 / RFU, CUL4A / Fold change vs veh, CUL4A / RFU, CCNY / Fold change vs veh, CCNY / RFU, UFL1 / Fold change vs veh, UFL1 / RFU, COG3 / Fold change vs veh, COG3 / RFU, DIAPH2 / Fold change vs veh, DIAPH2 / RFU, SKA2 / Fold change vs veh, SKA2 / RFU, AFF3 / Fold change vs veh, AFF3 / RFU, LMF1 / Fold change vs veh, LMF1 / RFU, IPO11 / Fold change vs veh, IPO11 / RFU, DFFB / Fold change vs veh, DFFB / RFU, FOXP1 / Fold change vs veh, FOXP1 / RFU, CARD8 / Fold change vs veh, CARD8 / RFU, STRN3 / Fold change vs veh, STRN3 / RFU, ADK / Fold change vs veh, ADK / RFU, RASSF2 / Fold change vs veh, RASSF2 / RFU, WIPF1 / Fold change vs veh, WIPF1 / RFU, LARP1B / Fold change vs veh, LARP1B / RFU, RASA1 / Fold change vs veh, RASA1 / RFU, RB1 / Fold change vs veh, RB1 / RFU, PPFIA1 / Fold change vs veh, PPFIA1 / RFU, MAT2A / Fold change vs veh, MAT2A / RFU, CCT5 / Fold change vs veh, CCT5 / RFU, WDR92 / Fold change vs veh, WDR92 / RFU, CUX1 / Fold change vs veh, CUX1 / RFU, TTC7A / Fold change vs veh, TTC7A / RFU, TMEM135 / Fold change vs veh, TMEM135 / RFU, DEPTOR / Fold change vs veh, DEPTOR / RFU, CPM / Fold change vs veh, CPM / RFU, DNAJB6 / Fold change vs veh, DNAJB6 / RFU, CACNA2D3 / Fold change vs veh, CACNA2D3 / RFU, DTX4 / Fold change vs veh, DTX4 / RFU, TFCP2 / Fold change vs veh, TFCP2 / RFU, GMCL1 /// GMCL1P1 / Fold change vs veh, GMCL1 /// GMCL1P1 / RFU, AEBP2 / Fold change vs veh, AEBP2 / RFU, SNHG1 /// SNORD22 /// SNORD25 /// SNORD26 /// SNORD27 /// SNORD28 /// SNORD29 /// SNORD31 / Fold change vs veh, SNHG1 /// SNORD22 /// SNORD25 /// SNORD26 /// SNORD27 /// SNORD28 /// SNORD29 /// SNORD31 / Fold change (Aza/veh), C12orf56 (ProbeSet 11735607_a_at) / Fold change (ACY-1035/veh), C12orf56 (ProbeSet 11735607_a_at) / Fold change (Aza/veh), FGFR1OP (ProbeSet 11751329_s_at) / Fold change (ACY-1035/veh), FGFR1OP (ProbeSet 11751329_s_at) / Fold change (Aza/veh), VPS36 (ProbeSet 11739960_a_at) / Fold change (ACY-1035/veh), VPS36 (ProbeSet 11739960_a_at) / RFU SYPL1 (11715823_x_at) / Fold change /veh SYPL1 (11715823_x_at) / RFU IGFBP7 (11715501_s_at) / Fold change /veh IGFBP7 (11715501_s_at) / RFU REEP3 (11722064_at) / Fold change /veh REEP3 (11722064_at) / RFU IGLL1 (11728026_x_at) / Fold change /veh IGLL1 (11728026_x_at): dose or concentration left out as unconfirmed
Conditions: ProbeSet 11716844_s_at; LIST D

With `Nc1ccc(-c2cccs2)cc1NC(=O)c1ccc2c(c1)cc(C1CC1)n2CCN1CCOCC1` [ACY-1035] the “Fold change vs veh, DNAJC13” value was 0.91.
